≈ marks a conversion by molar mass, not a printed value. Like-named read-outs stand apart in the source and are kept apart here. Non-standard residues stand in square brackets, D forms with d. No end group written: not given here. Orn = NCCC[C@H](N)C(=O)O
What was measured:
[1] = tested on: Bacillus paralicheniformis NNS4-3; experiment: Antibiotic susceptibility test of NNS4-3 (disc diffusion); format: cell-based; details: disc diffusion on MH agar, 30 °C, 24 h, triplicate; result in words (Figure S1)
Description: The susceptibility of NNS4-3 to the standard antibiotics was studied by a disc diffusion assay. The isolate was inoculated at 30 °C with shaking at 150 rpm for 24 h in ZM broth. The culture was adjusted to 0.1 OD at 625 nm before being spread onto the MH agar. The antibiotic discs (Oxoid Ltd., Hampshire, UK) of ciprofloxacin (5 µg), piperacillin (100 µg) combined with tazobactam (10 µg), imipenem (10 µg), ceftriaxone (30 µg), cefoxitin (30 µg), doxycycline (30 µg), vancomycin (30 µg), erythromycin (15 µg), and gentamicin (10 µg) were placed on the culture-seeded agar and then incubated at 30 °C for 24 h. The susceptibility tests were conducted in triplicate. The inhibition zones were presented as mean ± SD.

MRSA strain 142 [2] = experiment: microbe, parasite or virus in culture; format: cell-based, Staphylococcus aureus; details: Staphylococcus aureus, MRSA, 24 h
Description: (§1) The MIC and MBC of the purified peptide of NNS4-3 were determined against various strains of S. aureus. The broth microdilution method followed the guidance provided by the Clinical and Laboratory Standards Institute (CLSI). Pathogenic bacteria, such as S. aureus TISTR 517 and MRSA strains 142, 1096, and 2468, were used as test strains and cultured on MH agar at 37 °C for 18 h. A single colony of each tested bacterium was suspended in 0.85% NaCl until its turbidity reached an OD of 0.1 at 625 nm (1 × 10^8 CFU/mL). The bacterial cells were diluted to 5 × 10^6 CFU/mL using cation-adjusted Mueller Hinton broth (CAMHB). The diluted cell suspension (10 µL) was transferred to each well of a 96-well plate. With a total volume of 100 µL in each well, the purified AMP was added to each well to obtain final concentrations between 0.125 and 64 µg/mL. Standard antibiotics (vancomycin and cefoxitin) and antibiotic-free samples were used as positive and negative controls, respectively. The 96-well plate was incubated at 37 °C for 24 h. The experiment was carried out in triplicate for each strain. […] Subsequently, 100 µL of each dilution was spread on MH agar and then incubated at 37 °C for 24 h. The MBC was identified as the lowest concentration at which no bacterial colony growth was observed on the plate.

MRSA strain 2468 [3] = experiment: microbe, parasite or virus in culture; format: cell-based, Staphylococcus aureus; details: Staphylococcus aureus, MRSA, 24 h
Description: as §1

MRSA strain 1096 [4] = experiment: microbe, parasite or virus in culture; format: cell-based, Staphylococcus aureus; details: Staphylococcus aureus, MRSA, 24 h
Description: as §1

S. aureus TISTR 517 [5] = experiment: microbe, parasite or virus in culture; format: cell-based, Staphylococcus aureus; details: Staphylococcus aureus
Description: as §1

MRSA strain 142 [6] = experiment: Agar well diffusion assay; format: cell-based, Staphylococcus aureus; details: 100 µL CFS of 3-day culture in 9 mm wells, controls 30 µg, MH agar, 37 °C, 18 h, mean ± SD, n = 3
Description: (§2) The active isolates from the agar overlay assay were inoculated in broth. The types of broth media were the same as those used during the initial isolation. The liquid cultures were incubated at 30 °C with shaking at 150 rpm for 18 h. The optical density of the starter culture was adjusted to a turbidity of 0.1 OD at 625 nm with 0.85% sterile NaCl solution before transferring 1 mL of the culture into 49 mL of fresh broth. The inoculum was then incubated at 30 °C and 150 rpm for 3 days. The cell-free supernatant (CFS) was collected by centrifugation at 10,000× g at 4 °C for 15 min and filtered using a 0.2 µm sterile cellulose acetate syringe filter (Sigma-Aldrich, Warren, MI, USA). The antibacterial activity of the isolates was studied using S. aureus TISTR 517, obtained from the Thailand Institute of Scientific and Technological Research (TISTR), Thailand. The three strains of MRSA (strains 142, 1096, and 2468) were kindly provided by the medical technology laboratory of the School of Allied Health Sciences, Walailak University, Thailand. The pathogenic bacteria were incubated at 37 °C for 18 h on MH agar. The microbial indicators were prepared to a turbidity equivalent to 0.1 OD at 625 nm before being spread on MH agar. The CFS of 100 µL was aseptically transferred to 9 mm diameter wells, followed by an incubation period at 37 °C for 18 h. Cefoxitin (30 µg) and vancomycin (30 µg) (Sigma-Aldrich Co., St. Louis, MO, USA) were employed as positive controls. The experiment was conducted in triplicate and the mean ± SD of the diameters of the inhibition zones was measured.
(§3) The sample was incubated at 30 °C with shaking at 150 rpm for 7 days. The OD at 625 nm of the inoculum was measured and the CFS was collected at 0, 4, 8, 12, 16, 20, and 24 h on the first day of incubation and then once a day until the seventh day of incubation. The bacterial growth was observed by measuring OD at 625 nm and the collected CFS at all time points was evaluated for antibacterial activity using the agar well diffusion assay against S. aureus TISTR 517 and three strains of MRSA. The experiment was performed in triplicate. […] The kinetics of the antimicrobial compounds’ production curve with mean ± SD were presented.

MRSA strain 2468 [7] = experiment: Agar well diffusion assay; format: cell-based, Staphylococcus aureus; details: 100 µL CFS of 3-day culture in 9 mm wells, controls 30 µg, MH agar, 37 °C, 18 h, mean ± SD, n = 3
Description: as §2, §3

MRSA strain 1096 [8] = experiment: Agar well diffusion assay; format: cell-based, Staphylococcus aureus; details: 100 µL CFS of 3-day culture in 9 mm wells, controls 30 µg, MH agar, 37 °C, 18 h, mean ± SD, n = 3
Description: as §2, §3

S. aureus TISTR 517 [9] = experiment: Agar well diffusion assay; format: cell-based, Staphylococcus aureus; details: 100 µL CFS of 3-day culture in 9 mm wells, controls 30 µg, MH agar, 37 °C, 18 h, mean ± SD, n = 3
Description: as §2, §3

MRSA strain 2468 [10] = experiment: SEM of treated cells (morphological changes); format: cell-based, Staphylococcus aureus; details: 1× MIC, 18 h incubation, 20,000× magnification
Description: (§4) The treatment effect of NNS4-3 AMP on tested bacterial cells was investigated by observing morphological changes under SEM. S. aureus TISTR 517 and MRSA strain 2468 were precultured in MH broth for 18 h before being centrifuged to harvest the cell pellet. Cell pellets of both strains were washed with 0.85% sterile NaCl solution 3 times to remove exopolysaccharide. The washed cells were then dispersed in CAMHB to adjust cell turbidity to 0.1 OD at 625 nm. The prepared cells were diluted to 5 × 10^5 CFU/mL with CAMHB before being treated with NNS4-3 AMP. […] The sample for SEM micrography was prepared by fixing the bacterial sample in 2.5% glutaraldehyde in 0.1 M phosphate buffer pH 7.2 for 24 h before ethanol dehydration of the sample. The complete ethanol removal from the prepared sample was conducted by a critical point drying machine (Quorum Technologies Ltd., Lewes, East Sussex, UK).

S. aureus TISTR 517 [11] = experiment: SEM of treated cells (morphological changes); format: cell-based, Staphylococcus aureus; details: 1× MIC, 18 h incubation, 20,000× magnification
Description: as §4

[12] = bacitracin from Bacillus paralicheniformis UBBLi30, ref [42], cited from earlier work
MRSA strain MW2 = details: ref [41]; cited from earlier work
MSSA strain RN4420 = details: ref [41]; cited from earlier work
Source text: The literature search could support the observed difference in MIC between MSSA and MRSA strains.

[13] = broth microdilution, CAMHB, 37 °C, 0.125-64 µg/mL, triplicate, read-out: MIC

Compound: C[C@@H](O)[C@H]1C(=O)N2C(C(=O)O)=C(SCCN=CN)C[C@H]12 [imipenem]
- antibiotic susceptibility of the NNS4-3 isolate [1]: high potency inhibition

Compound: CN[C@H](CC(C)C)C(=O)N[C@H]1C(=O)N[C@@H](CC(N)=O)C(=O)N[C@H]2C(=O)N[C@H]3C(=O)N[C@H](C(=O)N[C@H](C(=O)O)c4cc(O)cc(O)c4-c4cc3ccc4O)[C@H](O)c3ccc(c(Cl)c3)Oc3cc2cc(c3O[C@@H]2O[C@H](CO)[C@@H](O)[C@H](O)[C@H]2O[C@H]2C[C@](C)(N)[C@H](O)[C@H](C)O2)Oc2ccc(cc2Cl)[C@H]1O [Vancomycin]
- antibiotic susceptibility of the NNS4-3 isolate [1]: moderate to high susceptibility
- MBC (MRSA strain 142 [2]): 2 µg/mL (≈ 1.38 µM)
- MIC (MRSA strain 142 [2]): 2 µg/mL (≈ 1.38 µM)
- MBC (MRSA strain 2468 [3]): 2 µg/mL (≈ 1.38 µM)
- MIC (MRSA strain 2468 [3]): 2 µg/mL (≈ 1.38 µM)
- MBC (MRSA strain 1096 [4]): 2 µg/mL (≈ 1.38 µM)
- MIC (MRSA strain 1096 [4]): 2 µg/mL (≈ 1.38 µM)
- MBC (S. aureus TISTR 517 [5]; TISTR517, 24 h): 2 µg/mL (≈ 1.38 µM)
- MIC (S. aureus TISTR 517 [5]; TISTR517, 24 h): 2 µg/mL (≈ 1.38 µM)
- Zone of Inhibition (MRSA strain 142 [6]): 24.13 ± 1.27 mm
- Zone of Inhibition (MRSA strain 2468 [7]): 24.64 ± 1.02 mm
- Zone of Inhibition (MRSA strain 1096 [8]): 24.38 ± 0.51 mm
- Zone of Inhibition (S. aureus TISTR 517 [9]): 23.37 ± 1.27 mm
- morphological changes under SEM (MRSA strain 2468 [10]): irregular shape
- morphological changes under SEM (S. aureus TISTR 517 [11]): cellular lysis

Compound: CO[C@@]1(NC(=O)Cc2cccs2)C(=O)N2C(C(=O)O)=C(COC(N)=O)CS[C@@H]21 [Cefoxitin]
- antibiotic susceptibility of the NNS4-3 isolate [1]: moderate to high susceptibility
- MIC (MRSA strain 142 [2]; [13]): > 64 µg/mL
- MIC (MRSA strain 2468 [3]; [13]): > 64 µg/mL
- MIC (MRSA strain 1096 [4]; [13]): > 64 µg/mL
- MIC (S. aureus TISTR 517 [5]; TISTR517, broth microdilution, CAMHB, 37 °C, 24 h, 0.125-64 µg/mL, triplicate, read-out: MIC): 2 µg/mL (≈ 4.68 µM)
- MBC (S. aureus TISTR 517 [5]; TISTR517, plated on MH agar after MIC, 37 °C, 24 h, triplicate, read-out: MBC): 2 µg/mL (≈ 4.68 µM)
- Zone of Inhibition (MRSA strain 142 [6]): 0.00 ± 0.00 mm
- Zone of Inhibition (MRSA strain 2468 [7]): 0.00 ± 0.00 mm
- Zone of Inhibition (MRSA strain 1096 [8]): 0.00 ± 0.00 mm
- Zone of Inhibition (S. aureus TISTR 517 [9]): 35.87 ± 0.46 mm
- morphological changes under SEM (MRSA strain 2468 [10]): good tolerance
- morphological changes under SEM (S. aureus TISTR 517 [11]): cellular lysis

Compound: C[C@H]1c2cccc(O)c2C(=O)C2=C(O)[C@]3(O)C(=O)C(C(N)=O)=C(O)[C@@H](N(C)C)[C@@H]3[C@@H](O)[C@@H]21 [doxycycline]
- antibiotic susceptibility of the NNS4-3 isolate [1]: moderate to high susceptibility

Compound: O=C(O)c1cn(C2CC2)c2cc(N3CCNCC3)c(F)cc2c1=O [ciprofloxacin]
- antibiotic susceptibility of the NNS4-3 isolate [1]: high potency inhibition

Compound: CO/N=C(\C(=O)N[C@@H]1C(=O)N2C(C(=O)O)=C(CSc3nc(=O)c(=O)[nH]n3C)CS[C@H]12)c1csc(N)n1 [ceftriaxone]
- antibiotic susceptibility of the NNS4-3 isolate [1]: tolerated

Compound: LCLEIK[Orn]IFHDN [bacitracin, AMP constructed by non-ribosomal peptide synthesis; literature values]
- activity after autoclaving ([12]; autoclaving for 15 min): 80%
- activity at pH 14 ([12]; pH 14, 1 h): lost
- MIC (MRSA strain MW2): 32 µg/mL
- MIC (MSSA strain RN4420): 64 µg/mL

Compound: CC[C@H]1OC(=O)[C@H](C)[C@@H](O[C@H]2C[C@@](C)(OC)[C@@H](O)[C@H](C)O2)[C@H](C)[C@@H](O[C@@H]2O[C@H](C)C[C@H](N(C)C)[C@H]2O)[C@](C)(O)C[C@@H](C)C(=O)[C@H](C)[C@@H](O)[C@]1(C)O [erythromycin]
- antibiotic susceptibility of the NNS4-3 isolate [1]: highest susceptibility

Compound: CNC(C)C1CCC(N)C(OC2C(N)CC(N)C(OC3OCC(C)(O)C(NC)C3O)C2O)O1 (stereo not shown) [gentamicin]
- antibiotic susceptibility of the NNS4-3 isolate [1]: moderate to high susceptibility
